The source of these data is US10988478B1, “Pyrazolo[1,5a]pyrimidine derivatives as IRAK4 modulators” (Genentech, Inc., priority 2015, dated 2021).

In general, Ki refers to a measure of affinity in units of concentration, obtained from inhibition or displacement.

human IRAK4, sequence (Q9NWZ3 whole entry, the tested form may be a part): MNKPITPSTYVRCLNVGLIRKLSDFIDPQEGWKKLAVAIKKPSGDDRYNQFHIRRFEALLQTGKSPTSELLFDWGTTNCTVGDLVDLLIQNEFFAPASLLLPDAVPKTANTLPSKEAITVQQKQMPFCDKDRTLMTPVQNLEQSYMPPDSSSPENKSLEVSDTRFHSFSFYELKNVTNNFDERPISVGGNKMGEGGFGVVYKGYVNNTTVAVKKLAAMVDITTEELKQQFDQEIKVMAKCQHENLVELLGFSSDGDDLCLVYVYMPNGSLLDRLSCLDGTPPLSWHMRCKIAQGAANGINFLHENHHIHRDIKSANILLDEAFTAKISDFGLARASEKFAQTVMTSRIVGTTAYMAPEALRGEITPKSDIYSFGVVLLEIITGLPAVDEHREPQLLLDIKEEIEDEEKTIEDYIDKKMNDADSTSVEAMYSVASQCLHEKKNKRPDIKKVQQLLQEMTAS

For this experiment, the target named is human IRAK4 (Homo sapiens (Human), UniProt Q9NWZ3). As to the kind of experiment: IRAK4 kinase inhibition, Transcreener fluorescence polarization ADP assay. The experiment is classed as biochemical. To be noted: recombinant full-length His6-IRAK4; 125 uM ATP; 90 min; Ki computed using ATP Km 642 uM. As for the experimental part:
Compounds were assayed for inhibition of human IRAK4 and IRAK1 catalytic activity using recombinant enzyme produced from insect cells. Full-length IRAK4 protein, carrying an N-terminal His6-Tag, was obtained from Life Technologies (Carlsbad, Calif., USA). The IRAK1 construct was produced internally and was comprised of IRAK1 residues Arg194 to Ser712, preceded by an NH2-terminal His6 tag and the coding sequence for glutathione-S-transferase.
On the technique in general: Fluorescence polarisation rises when a labelled molecule tumbles more slowly, as on binding a larger partner.
With `CC1(C)Cc2cc(NC(=O)c3cnn4cccnc34)c(N3CCN(C(C)(C)CO)CC3)cc2O1` [Example 137, N-[6-[4-(2-Hydroxy-1,1-dimethyl-ethyl)piperazin-1-yl]-2,2-dimethyl-3H-benzofuran-5-yl]pyrazolo[1,5-a]pyrimidine-3-carboxamide], the Ki came out at 0.17 µM.

For `C[C@@]1(C2CC2)Cc2cc(NC(=O)c3cnn4cccnc34)c(N3CCN(CC(F)F)CC3)cc2O1` [Example 160, (S)—N-(2-Cyclopropyl-6-(4-(2,2-difluoroethyl)piperazin-1-yl)-2-methyl-2,3-dihydrobenzofuran-5-yl)pyrazolo[1,5-a]pyrimidine-3-carboxamide], the Ki was found to be 0.0048 µM.

Turning to `CC1(CO)Cc2cc(NC(=O)c3cnn4cccnc34)c(N3CCC(C(O)C(F)F)CC3)cc2O1` (stereo not drawn) [Example 352, N-(6-(4-(2,2-Difluoro-1-hydroxyethyl)piperidin-1-yl)-2-(hydroxymethyl)-2-methyl-2,3-dihydrobenzofuran-5-yl)pyrazolo[1,5-a]pyrimidine-3-carboxamide], the Ki was determined as 0.002 µM.

For `C[C@]1(O)CCCN(c2cc3c(cc2NC(=O)c2cnn4cccnc24)C[C@](C)(CO)O3)CC1` [Example 330, N-((R)-6-((S)-4-hydroxy-4-methylazepan-1-yl)-2-(hydroxymethyl)-2-methyl-2,3-dihydrobenzofuran-5-yl)pyrazolo[1,5-a]pyrimidine-3-carboxamide], the Ki came to 0.006 µM.

On to `C[C@]1(CO)CCc2cc(NC(=O)c3cnn4cccnc34)c(N3CCOCC3)cc2O1` (single isomer, unassigned) [Example 437], for which the inhibitory constant (Ki) was 0.014 µM.

In the case of `CC1(C)Cc2cc(NC(=O)c3cnn4cc(C(F)F)cnc34)c(N3CCOCC3)cc2O1` [Example 91, 6-(Difluoromethyl)-N-(2,2-dimethyl-6-morpholino-3H-benzofuran-5-yl)pyrazolo[1,5-a]pyrimidine-3-carboxamide], the inhibition constant Ki worked out at 0.039 µM.

In the case of `CNc1cnc2c(C(=O)Nc3cc4c(cc3N3CCN(CC(F)F)CC3)O[C@](C)(CO)C4)cnn2c1` [Example 381, (S)-N-(6-(4-(2,2-difluoroethyl)piperazin-1-yl)-2-(hydroxymethyl)-2-methyl-2,3-dihydrobenzofuran-5-yl)-6-(methylamino)pyrazolo[1,5-a]pyrimidine-3-carboxamide], the inhibition constant Ki was determined as 0.003 µM.

In the case of `C[C@]1(CO)Cc2cc(NC(=O)c3cnn4cccnc34)c(N3CC[C@@H](F)C3)cc2O1` [Example 58, N-[(2R)-6-[(3R)-3-Fluoropyrrolidin-1-yl]-2-(hydroxymethyl)-2-methyl-3H-benzofuran-5-yl]pyrazolo[1,5-a]pyrimidine-3-carboxamide], the Ki came out at 0.036 µM.

Turning to `CC1(COC(F)F)Cc2cc(NC(=O)c3cnn4cccnc34)c(N3CCN(CC(F)F)CC3)cc2O1` (stereo not drawn) [Example 362, N-(6-(4-(2,2-difluoroethyl)piperazin-1-yl)-2-((difluoromethoxy)methyl)-2-methyl-2,3-dihydrobenzofuran-5-yl)pyrazolo[1,5-a]pyrimidine-3-carboxamide], the Ki was found to be 0.0067 µM.

Regarding `CN1CC[C@@H](N2Cc3cc(NC(=O)c4cnn5cccnc45)c(N4CCOCC4)cc3C2=O)C1=O` [Example 553, N-[2-[(3R)-1-methyl-2-oxo-pyrrolidin-3-yl]-6-morpholino-1-oxo-isoindolin-5-yl]pyrazolo[1,5-a]pyrimidine-3-carboxamide], the Ki stood at 0.058 µM.

Regarding `C[C@]1(CO)Cc2cc(NC(=O)c3cnn4cccnc34)c(N3CCC(F)(CO)CC3)cc2O1` (single isomer, unassigned) [Example 44], the inhibition constant Ki came to 0.0017 µM.

In the case of `CC(C)(O)[C@H]1CC[C@H](N2Cc3cc(NC(=O)c4cnn5cccnc45)c(N4CCOCC4)cc3C2=O)CC1` [Example 548, trans-N-[2-[4-(1-Hydroxy-1-methyl-ethyl)cyclohexyl]-6-morpholino-1-oxo-isoindolin-5-yl]pyrazolo[1,5-a]pyrimidine-3-carboxamide], the Ki came to 0.0029 µM.

On to `CCOP(=O)(OCC)OCC1CCN(c2cc3c(cc2NC(=O)c2cnn4cccnc24)CC(C)(C)O3)CC1` [Example 145, [1-[2,2-Dimethyl-5-(pyrazolo[1,5-a]pyrimidine-3-carbonylamino)-3H-benzofuran-6-yl]-4-piperidyl]methyl diethyl phosphate], for which the Ki amounted to 0.13 µM.

For `Cc1cnc2c(C(=O)Nc3cc4c(cc3N3CCN(CC(F)F)CC3)C(=O)N(C[C@@H](F)C(C)(C)O)C4)cnn2c1` [Example 284, N-[6-[4-(2,2-Difluoroethyl)piperazin-1-yl]-2-[(2R)-2-fluoro-3-hydroxy-3-methyl-butyl]-1-oxo-isoindolin-5-yl]-6-methyl-pyrazolo[1,5-a]pyrimidine-3-carboxamide], the Ki stood at 0.002 µM.

`CC1(C)Cc2cc(NC(=O)c3cnn4cccnc34)c(N3CCN(CC4CCCO4)CC3)cc2O1` (stereo not drawn) [Example 230, N-(2,2-Dimethyl-6-(4-((tetrahydrofuran-2-yl)methyl)piperazin-1-yl)-2,3-dihydrobenzofuran-5-yl)pyrazolo[1,5-a]pyrimidine-3-carboxamide]: the Ki stood at 0.018 µM.

Take `CC1(C)Cc2cc(NC(=O)c3cnn4cc(C5CNC5)cnc34)c(N3CCOCC3)cc2O1` [Example 490, 6-(Azetidin-3-yl)-N-(2,2-dimethyl-6-morpholino-3H-benzofuran-5-yl)pyrazolo[1,5-a]pyrimidine-3-carboxamide]: the Ki was determined as 0.98 µM.

For the molecule `CC1COc2cc(N3CCOCC3)c(NC(=O)c3cnn4cccnc34)cc2N1` (stereo not drawn) [Example 10, N-(3-Methyl-7-morpholino-3,4-dihydro-2H-benzo[b][1,4]oxazin-6-yl)pyrazolo[1,5-a]pyrimidine-3-carboxamide], the Ki was 0.27 µM.

As for `O=C(Nc1cc2c(cc1N1CCOCC1)C(=O)N(C[C@@H]1CCC[C@H]1O)C2)c1cnn2cccnc12` (stereo in doubt) [Example 549, N-[2-[[(1S,2R)-2-hydroxycyclopentyl]methyl]-6-morpholino-1-oxo-isoindolin-5-yl]pyrazolo[1,5-a]pyrimidine-3-carboxamide], the Ki was 0.0081 µM.

Consider `C[C@]1(CO)Cc2cc(NC(=O)c3cnn4cccnc34)c(N3CCN(CC(F)F)CC3)cc2O1` [Example 98, N-[(2R)-6-[4-(2,2-Difluoroethyl)piperazin-1-yl]-2-(hydroxymethyl)-2-methyl-3H-benzofuran-5-yl]pyrazolo[1,5-a]pyrimidine-3-carboxamide], for which the Ki came out at 0.0028 µM.

In the case of `O=C(Nc1cc2c(cc1N1CCOCC1)S(=O)(=O)CCN2)c1cnn2cccnc12` [Example 402, N-(7-Morpholino-1,1-dioxido-3,4-dihydro-2H-benzo[b][1,4]thiazin-6-yl)pyrazolo[1,5-a]pyrimidine-3-carboxamide], the Ki stood at 0.019 µM.

Regarding `C[C@@H]1CN(C)CC[C@]12Cc1cc(NC(=O)c3cnn4cccnc34)c(N3CCOCC3)cc1O2` [Example 498, N-((2R,3′R)-1′,3′-dimethyl-6-morpholino-3H-spiro[benzofuran-2,4′-piperidin]-5-yl)pyrazolo[1,5-a]pyrimidine-3-carboxamide], the Ki amounted to 0.029 µM.

For `C[C@@H](C(N)=O)N1CCN(c2cc3c(cc2NC(=O)c2cnn4cccnc24)CC(C)(C)O3)CC1` [Example 473, N-[6-[4-[(1S)-2-amino-1-methyl-2-oxo-ethyl]piperazin-1-yl]-2,2-dimethyl-3H-benzofuran-5-yl]pyrazolo[1,5-a]pyrimidine-3-carboxamide], the Ki was 0.005 µM.

As for `CN1CCC2(CC1)Cc1cc(NC(=O)c3cnn4cccnc34)c(N3CCC(CO)CC3)cc1O2` [Example 371, N-(6-(4-(Hydroxymethyl)piperidin-1-yl)-1′-methyl-3H-spiro[benzofuran-2,4′-piperidin]-5-yl)pyrazolo[1,5-a]pyrimidine-3-carboxamide], the Ki stood at 0.0014 µM.

For the molecule `CC1(C)Cc2cc(NC(=O)c3cnn4cccnc34)c(N3CCC4(CC3)CC(O)C4)cc2O1` [Example 110, N-(6-(2-hydroxy-7-azaspiro[3.5]nonan-7-yl)-2,2-dimethyl-2,3-dihydrobenzofuran-5-yl)pyrazolo[1,5-a]pyrimidine-3-carboxamide], the inhibition constant (Ki) turned out to be 0.0025 µM.

As for `CC(C)N1CCN(c2cc3c(cc2NC(=O)c2cnn4cccnc24)CC(C)(C)O3)CC1` [Example 508, N-(6-(4-isopropylpiperazin-1-yl)-2,2-dimethyl-2,3-dihydrobenzofuran-5-yl)pyrazolo[1,5-a]pyrimidine-3-carboxamide], the Ki stood at 0.043 µM.

`CC(C)C(=O)N1CCN(c2cc3c(cc2NC(=O)c2cnn4cccnc24)CC(C)(C)O3)CC1` [Example 219, N-(6-(4-isobutyrylpiperazin-1-yl)-2,2-dimethyl-2,3-dihydrobenzofuran-5-yl)pyrazolo[1,5-a]pyrimidine-3-carboxamide]: the Ki was 0.082 µM.

As to `COCC1(C)Cc2cc(NC(=O)c3cnn4cccnc34)c(N3CCOCC3)cc2O1` (stereo not drawn) [Example 25, N-(2-(Methoxymethyl)-2-methyl-6-morpholino-2,3-dihydrobenzofuran-5-yl)pyrazolo[1,5-a]pyrimidine-3-carboxamide], the Ki was 0.01 µM.

`CN1CC[C@H](N2Cc3cc(NC(=O)c4cnn5cccnc45)c(N4CCOCC4)cc3C2=O)C1=O` [Example 554, N-[2-[(3S)-1-methyl-2-oxo-pyrrolidin-3-yl]-6-morpholino-1-oxo-isoindolin-5-yl]pyrazolo[1,5-a]pyrimidine-3-carboxamide]: the Ki was found to be 0.014 µM.

In the case of `CN1CCC(c2cc3c(cc2NC(=O)c2cnn4cccnc24)CC(C)(C)O3)CC1` [Example 63, N-[2,2-Dimethyl-6-(1-methyl-4-piperidyl)-3H-benzofuran-5-yl]pyrazolo[1,5-a]pyrimidine-3-carboxamide], the Ki was 0.39 µM.

For `CC1(C)CS(=O)(=O)c2cc(N3CCOCC3)c(NC(=O)c3cnn4cccnc34)cc2N1` [Example 403, N-(3,3-Dimethyl-7-morpholino-1,1-dioxido-3,4-dihydro-2H-benzo[b][1,4]thiazin-6-yl)pyrazolo[1,5-a]pyrimidine-3-carboxamide], the Ki is 0.68 µM.
